In ChEMBL document CHEMBL5465560, “Selectivity Literature for EUbOPEN Chemogenomic Library” (2024):
Each block holds one compound with its values, some of them ahead of it.

Assays:
Ephrin type-A receptor 4 = Ephrin type-A receptor 4 (Homo sapiens, UniProt P54764); assay: Selectivity interaction (KinomeScan (DiscoverX)) EUB0000655a EPHA4; conditions: at 10 µM
[1] = target: Ribosomal protein S6 kinase alpha-4 (Homo sapiens) (UniProt O75676); assay: Selectivity interaction (KinomeScan (DiscoverX)) EUB0000618a RPS6KA4; conditions: at 10 µM
Ribosomal protein S6 kinase alpha-4 (Homo sapiens), sequence (O75676 whole entry, looked up): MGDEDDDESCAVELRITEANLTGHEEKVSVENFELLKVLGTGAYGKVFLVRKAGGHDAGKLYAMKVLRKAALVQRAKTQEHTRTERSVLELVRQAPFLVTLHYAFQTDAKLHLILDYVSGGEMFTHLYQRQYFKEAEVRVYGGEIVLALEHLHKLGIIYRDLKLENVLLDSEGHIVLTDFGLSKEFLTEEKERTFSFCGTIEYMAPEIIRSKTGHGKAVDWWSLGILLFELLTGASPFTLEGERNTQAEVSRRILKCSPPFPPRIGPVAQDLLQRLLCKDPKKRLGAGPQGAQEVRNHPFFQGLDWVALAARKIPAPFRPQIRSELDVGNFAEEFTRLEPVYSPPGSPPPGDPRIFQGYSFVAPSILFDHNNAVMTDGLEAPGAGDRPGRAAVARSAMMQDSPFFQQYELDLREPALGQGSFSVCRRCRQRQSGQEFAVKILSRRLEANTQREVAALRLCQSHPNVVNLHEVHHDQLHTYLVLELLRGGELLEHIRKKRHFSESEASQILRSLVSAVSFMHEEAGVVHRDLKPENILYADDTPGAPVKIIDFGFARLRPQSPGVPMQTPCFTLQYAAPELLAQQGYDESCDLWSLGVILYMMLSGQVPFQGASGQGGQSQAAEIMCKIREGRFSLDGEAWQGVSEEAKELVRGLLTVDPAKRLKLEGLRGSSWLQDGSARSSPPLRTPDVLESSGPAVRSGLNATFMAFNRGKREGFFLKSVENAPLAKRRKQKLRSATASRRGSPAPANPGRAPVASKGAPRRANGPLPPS

[2] = target: Receptor-interacting serine/threonine-protein kinase 3 (Homo sapiens) (UniProt Q9Y572); assay: Selectivity interaction (ActivX KiNativ screen (ex vivo kinase selectivity in human PBMCs)) EUB0001619a RIPK3; assay type: cell-based; conditions: PBMC, at 1 µM
[3] = target: T1, Phosphatidylinositol 4,5-bisphosphate 3-kinase catalytic subunit delta isoform (Homo sapiens) (UniProt O00329); assay: Selectivity interaction (KinomeScan (DiscoverX)) EUB0000045b PIK3CD
T1 sequence (whole entry): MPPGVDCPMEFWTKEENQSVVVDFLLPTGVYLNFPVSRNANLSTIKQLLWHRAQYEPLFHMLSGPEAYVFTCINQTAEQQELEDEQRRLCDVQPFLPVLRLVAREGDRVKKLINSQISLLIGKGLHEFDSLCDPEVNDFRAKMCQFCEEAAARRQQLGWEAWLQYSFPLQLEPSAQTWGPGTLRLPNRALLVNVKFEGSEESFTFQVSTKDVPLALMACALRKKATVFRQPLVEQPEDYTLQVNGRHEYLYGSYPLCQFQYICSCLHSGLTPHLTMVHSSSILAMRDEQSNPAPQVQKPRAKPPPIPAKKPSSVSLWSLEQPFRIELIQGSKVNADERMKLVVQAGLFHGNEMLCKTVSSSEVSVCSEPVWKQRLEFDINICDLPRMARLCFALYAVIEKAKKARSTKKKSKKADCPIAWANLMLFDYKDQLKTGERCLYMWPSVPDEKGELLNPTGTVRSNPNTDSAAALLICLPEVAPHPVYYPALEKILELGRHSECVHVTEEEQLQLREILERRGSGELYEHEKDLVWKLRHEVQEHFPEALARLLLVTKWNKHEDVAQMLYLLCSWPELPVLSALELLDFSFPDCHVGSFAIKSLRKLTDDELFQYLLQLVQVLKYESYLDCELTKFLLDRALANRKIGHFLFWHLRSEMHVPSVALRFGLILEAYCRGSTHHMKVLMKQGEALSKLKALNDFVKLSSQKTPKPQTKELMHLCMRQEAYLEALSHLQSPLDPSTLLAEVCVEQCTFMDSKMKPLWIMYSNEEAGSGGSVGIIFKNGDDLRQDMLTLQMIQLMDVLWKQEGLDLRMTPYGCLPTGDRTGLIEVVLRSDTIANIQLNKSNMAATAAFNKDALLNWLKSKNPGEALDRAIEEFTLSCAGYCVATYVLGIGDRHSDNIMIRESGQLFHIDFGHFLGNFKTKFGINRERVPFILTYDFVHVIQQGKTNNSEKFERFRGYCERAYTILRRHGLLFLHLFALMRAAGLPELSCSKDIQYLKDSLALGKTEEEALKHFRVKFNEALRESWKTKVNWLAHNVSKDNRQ

[4] = target: T2, Serine/threonine-protein kinase PLK4 (Homo sapiens) (UniProt O00444); assay: Selectivity interaction (KinomeScan (DiscoverX)) EUB0000595a PLK4; conditions: at 10 µM
T2 sequence (whole entry): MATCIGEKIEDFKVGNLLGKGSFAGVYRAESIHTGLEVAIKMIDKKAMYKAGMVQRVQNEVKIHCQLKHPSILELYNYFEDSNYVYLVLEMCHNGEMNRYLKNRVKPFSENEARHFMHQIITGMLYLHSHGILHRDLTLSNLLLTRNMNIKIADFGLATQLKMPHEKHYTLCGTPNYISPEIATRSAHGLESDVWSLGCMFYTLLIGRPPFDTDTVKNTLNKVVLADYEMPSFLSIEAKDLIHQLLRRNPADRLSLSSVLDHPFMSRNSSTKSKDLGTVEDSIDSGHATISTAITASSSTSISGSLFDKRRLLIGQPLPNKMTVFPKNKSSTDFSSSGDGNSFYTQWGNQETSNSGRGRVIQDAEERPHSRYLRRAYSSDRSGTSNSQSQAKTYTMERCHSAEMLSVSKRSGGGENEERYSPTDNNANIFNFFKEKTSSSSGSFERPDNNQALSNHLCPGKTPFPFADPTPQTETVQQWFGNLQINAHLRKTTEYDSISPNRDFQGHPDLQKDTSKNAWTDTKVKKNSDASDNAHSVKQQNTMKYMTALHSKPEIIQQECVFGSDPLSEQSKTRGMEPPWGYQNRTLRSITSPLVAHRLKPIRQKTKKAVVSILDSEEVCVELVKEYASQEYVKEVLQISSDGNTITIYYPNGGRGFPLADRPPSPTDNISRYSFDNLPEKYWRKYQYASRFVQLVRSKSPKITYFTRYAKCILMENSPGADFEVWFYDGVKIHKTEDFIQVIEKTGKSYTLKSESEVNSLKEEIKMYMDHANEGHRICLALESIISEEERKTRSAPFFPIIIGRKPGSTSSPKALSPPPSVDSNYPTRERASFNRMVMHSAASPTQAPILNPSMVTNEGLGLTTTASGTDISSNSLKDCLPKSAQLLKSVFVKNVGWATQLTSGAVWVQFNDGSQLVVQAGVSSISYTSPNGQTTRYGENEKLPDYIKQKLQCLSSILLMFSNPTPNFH

[5] = target: Serine/threonine-protein kinase pim-1 (Homo sapiens, UniProt P11309); conditions: at 10 µM
Serine/threonine-protein kinase pim-1, sequence (P11309 whole entry, looked up): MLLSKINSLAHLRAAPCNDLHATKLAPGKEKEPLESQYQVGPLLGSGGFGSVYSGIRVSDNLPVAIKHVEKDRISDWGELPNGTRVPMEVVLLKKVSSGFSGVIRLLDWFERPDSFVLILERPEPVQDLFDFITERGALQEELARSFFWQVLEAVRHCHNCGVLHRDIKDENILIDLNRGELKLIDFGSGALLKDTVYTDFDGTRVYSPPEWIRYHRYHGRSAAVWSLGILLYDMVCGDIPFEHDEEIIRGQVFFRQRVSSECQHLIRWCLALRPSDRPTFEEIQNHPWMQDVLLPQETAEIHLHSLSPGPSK

[6] = target: Tyrosine-protein kinase Lck (Homo sapiens, UniProt P06239); assay: Selectivity interaction (ProQinase) EUB0000171b LCK
Tyrosine-protein kinase Lck, sequence (P06239 2-509 limits assumed): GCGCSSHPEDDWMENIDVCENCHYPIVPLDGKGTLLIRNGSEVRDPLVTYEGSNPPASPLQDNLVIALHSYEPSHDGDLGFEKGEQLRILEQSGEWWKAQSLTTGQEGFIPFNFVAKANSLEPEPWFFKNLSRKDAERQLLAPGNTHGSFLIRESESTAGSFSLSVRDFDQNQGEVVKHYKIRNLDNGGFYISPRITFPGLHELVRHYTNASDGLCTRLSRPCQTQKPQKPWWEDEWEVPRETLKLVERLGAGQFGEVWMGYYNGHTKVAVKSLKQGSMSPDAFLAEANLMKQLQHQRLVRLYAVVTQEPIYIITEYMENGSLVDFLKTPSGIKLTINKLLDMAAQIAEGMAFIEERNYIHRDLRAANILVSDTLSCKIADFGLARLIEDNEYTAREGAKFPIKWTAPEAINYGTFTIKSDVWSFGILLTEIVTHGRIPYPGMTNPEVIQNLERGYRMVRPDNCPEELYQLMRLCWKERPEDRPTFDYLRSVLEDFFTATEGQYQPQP

[7] = target: Rho-associated protein kinase 1 (Homo sapiens) (UniProt Q13464); assay: Selectivity interaction (ProQinase) EUB0000171b ROCK1
Rho-associated protein kinase 1 (Homo sapiens), sequence (Q13464 2-1354 limits assumed): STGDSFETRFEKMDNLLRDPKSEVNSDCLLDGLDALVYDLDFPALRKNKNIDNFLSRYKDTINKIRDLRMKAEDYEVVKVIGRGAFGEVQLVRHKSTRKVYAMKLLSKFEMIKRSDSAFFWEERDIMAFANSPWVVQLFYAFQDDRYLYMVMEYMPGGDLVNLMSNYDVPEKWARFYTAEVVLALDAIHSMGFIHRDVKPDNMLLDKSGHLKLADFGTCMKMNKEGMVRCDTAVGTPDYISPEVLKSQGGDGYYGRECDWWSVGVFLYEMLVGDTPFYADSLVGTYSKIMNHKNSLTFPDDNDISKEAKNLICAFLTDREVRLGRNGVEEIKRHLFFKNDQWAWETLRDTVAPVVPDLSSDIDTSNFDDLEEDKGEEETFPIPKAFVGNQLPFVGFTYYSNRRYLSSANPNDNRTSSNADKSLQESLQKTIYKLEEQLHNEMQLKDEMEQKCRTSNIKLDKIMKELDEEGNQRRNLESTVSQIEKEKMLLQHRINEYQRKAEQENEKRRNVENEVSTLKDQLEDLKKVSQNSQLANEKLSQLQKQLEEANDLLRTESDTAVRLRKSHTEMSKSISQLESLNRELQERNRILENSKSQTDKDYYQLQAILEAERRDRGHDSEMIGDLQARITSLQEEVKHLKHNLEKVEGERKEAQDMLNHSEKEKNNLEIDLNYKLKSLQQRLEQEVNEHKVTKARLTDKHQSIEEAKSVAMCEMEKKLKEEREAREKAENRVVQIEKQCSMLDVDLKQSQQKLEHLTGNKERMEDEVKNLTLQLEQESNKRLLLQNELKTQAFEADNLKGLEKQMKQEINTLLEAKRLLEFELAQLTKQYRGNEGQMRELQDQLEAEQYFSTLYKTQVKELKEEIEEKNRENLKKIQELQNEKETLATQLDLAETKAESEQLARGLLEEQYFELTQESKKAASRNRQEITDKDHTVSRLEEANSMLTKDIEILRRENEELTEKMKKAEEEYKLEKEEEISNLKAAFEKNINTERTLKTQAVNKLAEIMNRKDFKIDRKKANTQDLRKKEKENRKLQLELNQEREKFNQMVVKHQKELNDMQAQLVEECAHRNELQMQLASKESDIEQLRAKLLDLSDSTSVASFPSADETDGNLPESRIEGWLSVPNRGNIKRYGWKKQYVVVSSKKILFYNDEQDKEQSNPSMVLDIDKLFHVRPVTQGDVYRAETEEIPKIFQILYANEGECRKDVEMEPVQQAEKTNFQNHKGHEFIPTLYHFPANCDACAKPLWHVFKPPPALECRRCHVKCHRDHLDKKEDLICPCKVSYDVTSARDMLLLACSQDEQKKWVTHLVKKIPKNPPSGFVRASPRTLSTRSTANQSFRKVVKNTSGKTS

[8] = target: BDNF/NT-3 growth factors receptor (Homo sapiens) (UniProt Q16620); assay: Selectivity interaction (KinomeScan (DiscoverX)) EUB0000666a NTRK2; conditions: at 10 µM
BDNF/NT-3 growth factors receptor (Homo sapiens), sequence (Q16620 32-822 limits assumed): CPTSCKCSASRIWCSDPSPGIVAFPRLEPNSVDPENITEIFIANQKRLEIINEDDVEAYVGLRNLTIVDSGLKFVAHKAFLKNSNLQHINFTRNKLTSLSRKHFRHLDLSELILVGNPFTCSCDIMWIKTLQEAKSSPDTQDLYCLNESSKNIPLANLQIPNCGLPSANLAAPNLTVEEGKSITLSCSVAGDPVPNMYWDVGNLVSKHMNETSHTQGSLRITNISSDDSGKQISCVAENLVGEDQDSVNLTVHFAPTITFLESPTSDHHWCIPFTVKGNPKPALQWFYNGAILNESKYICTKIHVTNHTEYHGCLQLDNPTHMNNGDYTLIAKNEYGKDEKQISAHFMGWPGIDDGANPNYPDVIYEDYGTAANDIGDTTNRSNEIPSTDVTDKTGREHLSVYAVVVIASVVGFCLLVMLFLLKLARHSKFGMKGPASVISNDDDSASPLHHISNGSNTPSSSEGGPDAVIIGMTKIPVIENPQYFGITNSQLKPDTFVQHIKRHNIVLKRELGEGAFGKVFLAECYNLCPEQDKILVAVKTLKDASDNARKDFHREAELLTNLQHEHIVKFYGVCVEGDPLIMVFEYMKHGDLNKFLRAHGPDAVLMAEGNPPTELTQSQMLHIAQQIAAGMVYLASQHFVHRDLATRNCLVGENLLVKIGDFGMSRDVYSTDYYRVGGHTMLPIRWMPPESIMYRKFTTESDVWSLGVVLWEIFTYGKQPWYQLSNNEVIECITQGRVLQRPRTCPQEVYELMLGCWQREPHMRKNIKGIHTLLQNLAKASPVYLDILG

Ephrin type-A receptor 4, sequence (P54764 whole entry): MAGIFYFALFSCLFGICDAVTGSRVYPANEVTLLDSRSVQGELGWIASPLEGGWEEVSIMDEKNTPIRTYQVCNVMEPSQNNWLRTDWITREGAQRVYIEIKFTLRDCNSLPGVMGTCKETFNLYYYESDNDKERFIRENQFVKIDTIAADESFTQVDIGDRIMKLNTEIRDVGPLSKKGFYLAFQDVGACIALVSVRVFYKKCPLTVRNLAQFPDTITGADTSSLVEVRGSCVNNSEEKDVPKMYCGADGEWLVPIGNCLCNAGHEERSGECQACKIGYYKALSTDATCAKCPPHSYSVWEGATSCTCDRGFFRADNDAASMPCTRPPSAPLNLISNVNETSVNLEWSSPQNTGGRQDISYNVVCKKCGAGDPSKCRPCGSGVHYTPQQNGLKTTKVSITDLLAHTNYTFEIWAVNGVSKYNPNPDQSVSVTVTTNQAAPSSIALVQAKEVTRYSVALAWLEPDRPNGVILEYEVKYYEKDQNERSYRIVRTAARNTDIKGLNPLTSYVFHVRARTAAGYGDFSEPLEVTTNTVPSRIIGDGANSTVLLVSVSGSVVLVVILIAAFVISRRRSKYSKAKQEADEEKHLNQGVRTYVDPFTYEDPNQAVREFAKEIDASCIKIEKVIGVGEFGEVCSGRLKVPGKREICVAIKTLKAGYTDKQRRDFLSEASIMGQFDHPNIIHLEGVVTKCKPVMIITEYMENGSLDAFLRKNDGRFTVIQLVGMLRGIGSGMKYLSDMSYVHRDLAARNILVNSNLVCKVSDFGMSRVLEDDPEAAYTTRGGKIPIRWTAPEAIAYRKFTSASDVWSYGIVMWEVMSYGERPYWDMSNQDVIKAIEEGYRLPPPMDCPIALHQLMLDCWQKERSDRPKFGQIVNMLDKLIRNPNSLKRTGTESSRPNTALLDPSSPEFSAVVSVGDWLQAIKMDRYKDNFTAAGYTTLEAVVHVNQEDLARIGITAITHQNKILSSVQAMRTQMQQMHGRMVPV

SMILES: CN(C)CCOc1ccc(-c2nc(-c3ccncc3)c(-c3ccc4c(c3)CC/C4=N\O)[nH]2)cc1
% of control (Ephrin type-A receptor 4): 100%

SMILES: O[C@H]1CC[C@H](Nc2ncc3nc(Nc4c(F)cc(F)cc4F)n([C@H]4CCOC4)c3n2)CC1
% of control [1]: 100%

SMILES: N#Cc1cccc(-c2c[nH]c3ncnc(N4CCOCC4)c23)c1
% of inhibition [2]: 8%

SMILES: C=CC(=O)Nc1cc(-n2c(=O)ccc3cnc4ccc(-c5ccc(NS(C)(=O)=O)cc5)cc4c32)ccc1C
% of control ([3]; at 1 µM): 73% | % of control ([3]; at 10 µM): 100%

SMILES: COCC(=O)NC/C=C/c1ccc2ncnc(Nc3ccc(Oc4ccc(C)nc4)c(C)c3)c2c1 [CP-724714]
% of control [4]: 74%

SMILES: Cc1cc([C@@H](C)Nc2ccccc2C(=O)O)c2nc(N3CCOCC3)cc(=O)n2c1 [AZD-6482]
% of control [5]: 100%

% of control ([6]; at 1 µM): 85% | % of control ([6]; at 5 µM): 89% | % of control ([7]; at 1 µM): 104% | % of control ([7]; at 5 µM): 80%
SMILES: C=CC(=O)Nc1cccc(C(=O)Nc2ccc(Nc3cc(-c4[nH]c(SC)nc4C)ccn3)cc2)c1

SMILES: O=C(NOC[C@H](O)CO)c1ccc(F)c(F)c1Nc1ccc(I)cc1F
% of control [8]: 100%
